Test results published in patent publication US20130344026A1, “Dimeric Smac Mimetics” (priority 2009, published 2013).
Read-outs that look alike come from different tables or passages of the source.

Test system: PANC-1 cells
Assay: cell viability assay in PANC-1 cells (compound alone, + 100 ng/ml TNFa, + 300 ng/ml TRAIL)
Assay type: cell-based
[1] = Homo sapiens, PANC-1, compound alone, Tables 6-10, read-out: IC50 (μM) in cell viability assay in PANC-1 cells: Compound alone
[2] = with 100 ng/ml TNFa, Tables 6-10, read-out: IC50 (μM) in cell viability assay in PANC-1 cells: Compound + 100 ng/ml TNFa
[3] = with 300 ng/ml TRAIL, Tables 6-10, read-out: IC50 (μM) in cell viability assay in PANC-1 cells: Compound + 300 ng/ml TRAIL
[4] = Homo sapiens, PANC-1, compound alone, Tables 15-18, read-out: IC50 (uM) in cell viability assay in PANC-1 cells: Cmpnd alone
[5] = with 100 ng/ml TNFa, Tables 15-18, read-out: IC50 (uM) in cell viability assay in PANC-1 cells: Cmpnd + 100 ng/ml TNFa
[6] = with 300 ng/ml TRAIL, Tables 15-18, read-out: IC50 (uM) in cell viability assay in PANC-1 cells: Cmpnd + 300 ng/ml TRAIL
[7] = Homo sapiens, PANC-1 cells, compound alone, read-out: IC50 (uM) in cell viability assay in PANC-1 cells, Cmpnd alone
[8] = PANC-1 cells, + 100 ng/ml TNFa, read-out: IC50 (uM) in cell viability assay in PANC-1 cells, Cmpnd + 100 ng/ml TNFa
[9] = PANC-1 cells, + 300 ng/ml TRAIL, read-out: IC50 (uM) in cell viability assay in PANC-1 cells, Cmpnd + 300 ng/ml TRAIL

| SMILES | IC50 [1] [µM] | IC50 [2] [µM] | IC50 [3] [µM] | other results |
| --- | --- | --- | --- | --- |
| CN[C@@H](C)C(=O)N[C@H](C(=O)N1CCC[C@H]1C(=O)N[C@H]1c2ccccc2C[C@@H]1OC(=O)CCCC(=O)O[C@H]1Cc2ccccc2[C@@H]1NC(=O)[C@@H]1CCCN1C(=O)[C@@H](NC(=O)[C@H](C)NC)C(C)(C)C)C(C)(C)C [Compound 118] | > 1 | 0.0007 | 0.0008 |  |
| CN[C@@H](C)C(=O)N[C@@H](CCCCCC[C@H](NC(=O)[C@H](C)NC)C(=O)N1CCC[C@H]1CNC(=O)Cc1ccccc1)C(=O)N1CCC[C@H]1CNC(=O)Cc1ccccc1 [Compound 77] | > 1 | > 1 | > 1 |  |
| CN[C@@H](C)C(=O)N[C@H](C(=O)N1C[C@@H](NC(=O)c2cccc(C(=O)N[C@H]3C[C@@H](C(=O)NC4CCCc5cc(Br)ccc54)N(C(=O)[C@@H](NC(=O)[C@H](C)NC)C(C)(C)C)C3)c2)C[C@H]1C(=O)NC1CCCc2cc(Br)ccc21)C(C)(C)C (single isomer, unassigned) [Compound 75] | > 1 | 0.018 | 0.013 |  |
| CN[C@@H](C)C(=O)N[C@H](C(=O)N1CCC[C@H]1c1nc(C(=O)NCCCCCCCCNC(=O)c2nc([C@@H]3CCCN3C(=O)[C@@H](NC(=O)[C@H](C)NC)C(C)(C)C)oc2-c2c[nH]c3ccccc23)c(-c2c[nH]c3ccccc23)o1)C(C)(C)C [Compound P4-26] |  |  |  | IC50 [4]: > 1 µM; IC50 [5]: 0.0007 µM; IC50 [6]: 0.0007 µM |
| CN[C@@H](C)C(=O)N[C@H](C(=O)N1C[C@@H](NC(=O)c2cccc(C(=O)N[C@H]3C[C@@H](C(=O)NC4CCCc5cccc(F)c54)N(C(=O)[C@@H](NC(=O)[C@H](C)NC)C(C)(C)C)C3)c2)C[C@H]1C(=O)NC1CCCc2cccc(F)c21)C(C)(C)C (single isomer, unassigned) [Compound 71] |  | 0.005 | 0.0091 | IC50 (compound alone, Tables 6-10, read-out: IC50 (μM) in cell viability assay in PANC-1 cells: Compound alone): > 1 µM |
| CN[C@@H](C)C(=O)NC(C(=O)N1C[C@@H](NC(=O)c2cccc(C(=O)N[C@H]3CC(C(=O)N[C@H](CO)[C@H](O)c4ccccc4)N(C(=O)[C@@H](NC(=O)[C@H](C)NC)C(C)(C)C)C3)c2)CC1C(=O)N[C@H](CO)[C@@H](O)c1ccccc1)C(C)(C)C (stereo partly shown) [Compound 42] | > 1 | 0.753 | 0.645 |  |
| CN[C@@H](C)C(=O)N[C@@H](CCCCCC[C@H](NC(=O)[C@H](C)NC)C(=O)N1C[C@@H](F)C[C@H]1C(=O)N[C@@H]1CCCc2ccccc21)C(=O)N1C[C@@H](F)C[C@H]1C(=O)N[C@@H]1CCCc2ccccc21 [Compound 100] | > 1 | 0.057 | 0.052 |  |
| CN[C@@H](C)C(=O)N[C@H](C(=O)N1C[C@@H](NC(=O)c2cccc(C(=O)N[C@H]3C[C@@H](C(=O)NCc4cccc5[nH]ccc45)N(C(=O)[C@@H](NC(=O)[C@H](C)NC)C(C)(C)C)C3)c2)C[C@H]1C(=O)NCc1cccc2[nH]ccc12)C(C)(C)C [Compound 7] | > 1 | 0.383 | 0.217 |  |
| CN[C@@H](C)C(=O)N[C@H](C(=O)N1C[C@@H](NC(=O)c2cccc(C(=O)N[C@H]3C[C@@H](C(=O)NCCc4ccc(S(N)(=O)=O)cc4)N(C(=O)[C@@H](NC(=O)[C@H](C)NC)C(C)(C)C)C3)c2)C[C@H]1C(=O)NCCc1ccc(S(N)(=O)=O)cc1)C(C)(C)C [Compound 8] | > 1 | > 1 | > 1 |  |
| CCCC[C@H](C)NC(=O)c1cc(C(=O)N[C@H]2C[C@@H](C(=O)N[C@@H]3CCCc4ccccc43)N(C(=O)[C@@H](NC(=O)[C@H](C)NC)C(C)(C)C)C2)cc(C(=O)N[C@H]2C[C@@H](C(=O)N[C@@H]3CCCc4ccccc43)N(C(=O)[C@@H](NC(=O)[C@H](C)NC)C(C)(C)C)C2)c1 [Compound 130] | > 1 | 0.018 | 0.019 |  |
| CN[C@@H](C)C(=O)N[C@H](C(=O)N1CCC[C@H]1Cn1cnnc1CCc1ccccc1)[C@@H](C)OCC#CC#CCO[C@H](C)[C@H](NC(=O)[C@H](C)NC)C(=O)N1CCC[C@H]1Cn1cnnc1CCc1ccccc1 [Compound 85] | > 1 | > 1 | > 1 |  |
| CN[C@@H](C)C(=O)N[C@H](C(=O)N1C[C@@H](NC(=O)c2cc(C(=O)N[C@H]3C[C@@H](C(=O)N[C@H](C)c4ccccc4)N(C(=O)[C@@H](NC(=O)[C@H](C)NC)[C@@H](C)OC)C3)[nH]n2)C[C@H]1C(=O)N[C@H](C)c1ccccc1)[C@@H](C)OC [Compound P3-110] |  |  |  | IC50 [7]: > 1 µM; IC50 [8]: 0.056 µM; IC50 [9]: 0.073 µM |
| CN[C@@H](C)C(=O)N[C@H](C(=O)N1C[C@@H](NC(=O)c2cccc(C(=O)N[C@H]3C[C@@H](C(=O)N[C@H](C)c4ccccn4)N(C(=O)[C@@H](NC(=O)[C@H](C)NC)C(C)(C)C)C3)c2)C[C@H]1C(=O)N[C@H](C)c1ccccn1)C(C)(C)C [Compound 25] | > 1 | 0.375 | 0.293 |  |
| CNC(C)C(=O)Nc1nc(-c2ccccc2)c(C(=O)NC[C@@H](NC(=O)[C@@H]2CCCN2C(=O)[C@@H](NC(=O)[C@H](C)NC)C(C)(C)C)c2ccccc2)s1 (stereo partly shown) [Compound 192] | > 1 | 0.659 | > 1 |  |
| CN[C@@H](C)C(=O)N[C@H](C(=O)N1CCC[C@H]1CN(CCCCCCN(CCc1ccccc1)C[C@@H]1CCCN1C(=O)[C@@H](NC(=O)[C@H](C)NC)C(C)(C)C)CCc1ccccc1)C(C)(C)C [Compound P4-22] |  |  |  | IC50 [4]: > 1 µM; IC50 [5]: 0.022 µM; IC50 [6]: 0.04 µM |
| CN[C@@H](C)C(=O)N[C@@H](CCCCCC[C@H](NC(=O)[C@H](C)NC)C(=O)N1CCC[C@H]1c1ncc(C(=O)Nc2ccccc2)o1)C(=O)N1CCC[C@H]1c1ncc(C(=O)Nc2ccccc2)o1 [Compound 39] | > 1 | > 1 | > 1 |  |
| CN[C@@H](C)C(=O)N[C@@H](CCCCNC(=O)c1cc(C(=O)NCCCC[C@H](NC(=O)[C@H](C)NC)C(=O)N2CCC[C@H]2Cn2nnnc2Sc2ccccc2)[nH]n1)C(=O)N1CCC[C@H]1Cn1nnnc1Sc1ccccc1 [Compound 208] | > 1 | 0.614 | > 1 |  |
| CN[C@@H](C)C(=O)N[C@H](C(=O)N1C[C@@H](NC(=O)c2cccc(C(=O)N[C@H]3C[C@@H](C(=O)N[C@@H]4CCCc5cc(OC)ccc54)N(C(=O)[C@@H](NC(=O)[C@H](C)NC)C(C)(C)C)C3)c2)C[C@H]1C(=O)N[C@@H]1CCCc2cc(OC)ccc21)C(C)(C)C [Compound 45] | > 1 | 0.008 | 0.014 |  |
| CN[C@@H](C)C(=O)N[C@H](C(=O)N1C[C@@H](NC(=O)c2cc(C(=O)N[C@H]3C[C@@H](C(=O)N[C@H](C)c4ccccc4)N(C(=O)[C@@H](NC(=O)[C@H](C)NC)C(C)(C)C)C3)n(C)n2)C[C@H]1C(=O)N[C@H](C)c1ccccc1)C(C)(C)C [Compound P3-107] |  |  |  | IC50 [7]: > 1 µM; IC50 [8]: 0.015 µM; IC50 [9]: 0.02 µM |
| CN[C@@H](C)C(=O)N[C@H](C(=O)N1CCC[C@H]1C(=O)N[C@H]1c2ccccc2C[C@H]1OCC#CC#CCO[C@@H]1Cc2ccccc2[C@@H]1NC(=O)[C@@H]1CCCN1C(=O)[C@@H](NC(=O)[C@H](C)NC)C(C)(C)C)C(C)(C)C [Compound 119] | > 1 | 0.0014 | 0.0018 |  |
| CN[C@@H](C)C(=O)N[C@H](C(=O)N1CCC[C@H]1CN1CCC[C@H]1C(c1ccccc1)c1ccccc1)[C@@H](C)OCCCCCCO[C@H](C)[C@H](NC(=O)[C@H](C)NC)C(=O)N1CCC[C@H]1CN1CCC[C@H]1C(c1ccccc1)c1ccccc1 [Compound 83] | > 1 | 0.494 | 0.437 |  |
| CN[C@@H](C)C(=O)N[C@H](C(=O)N1C[C@@H](OC(=O)c2cccc(C(=O)O[C@H]3C[C@@H](C(=O)N[C@H]4CCCc5ccccc54)N(C(=O)[C@@H](NC(=O)[C@H](C)NC)C(C)(C)C)C3)c2)C[C@H]1C(=O)N[C@H]1CCCc2ccccc21)C(C)(C)C [Compound 206] | > 1 |  |  |  |
| CN[C@@H](C)C(=O)N[C@H](C(=O)N1C[C@@H](NC(=O)c2cccc(C(=O)N[C@H]3C[C@@H](C(=O)N[C@@H]4CCCc5c(O)cccc54)N(C(=O)[C@@H](NC(=O)[C@H](C)NC)C(C)(C)C)C3)c2)C[C@H]1C(=O)N[C@@H]1CCCc2c(O)cccc21)C(C)(C)C (single isomer, unassigned) [Compound 60] | > 1 | 0.044 | 0.049 |  |
| CN[C@@H](C)C(=O)N[C@@H](CCCCNC(=O)c1cccc(C(=O)NCCCC[C@H](NC(=O)[C@H](C)NC)C(=O)N2CCC[C@H]2Cn2nnnc2Sc2ccccc2)c1)C(=O)N1CCC[C@H]1Cn1nnnc1Sc1ccccc1 [Compound 207] | > 1 | 0.263 | 0.398 |  |
| CN[C@@H](C)C(=O)N[C@H](C(=O)N1CCC[C@H]1c1cc(C(=O)OC)c(-c2cn(CC#CC#CCn3cc(-c4oc([C@@H]5CCCN5C(=O)[C@@H](NC(=O)[C@H](C)NC)C(C)(C)C)cc4C(=O)OC)c4ccccc43)c3ccccc23)o1)C(C)(C)C [Compound P4-25] |  |  |  | IC50 [4]: > 1 µM; IC50 [5]: 0.0342 µM; IC50 [6]: 0.0408 µM |
| CN[C@@H](C)C(=O)N[C@@H](CC#CC#CC[C@H](NC(=O)[C@H](C)NC)C(=O)N1CCC[C@H]1CNC(=O)c1ccccc1)C(=O)N1CCC[C@H]1CNC(=O)c1ccccc1 [Compound 14] | > 1 | > 1 | > 1 |  |
